Data from patent US11247976B2, “Synthetic ligands that modulate the activity of the RhlR quorum sensing receptor” (Wisconsin Alumni Research Foundation, priority 2016, dated 2022).
“Also recorded” adds a separate entry of the source.

Tests used:
RhlR [1] = biological target: T1, RhlR (Pseudomonas aeruginosa, UniProt P54292); assay: E. coli RhlR reporter antagonism assay vs 10 μM BHL (JLD271/pJN105R2/pSC11-rhlI*); assay type: cell-based, P. aeruginosa; settings: for Maximum Inhibition (%): E. coli reporter, relative to activation of 10 μM BHL alone
T1 construct: expressed in transfected cells; host or cells: E. coli JLD271 (ΔsdiA) with pJN105R2 (arabinose-induced) and pSC11-rhlI*
Experimental: (§1) All media and reagents for bacterial culture were purchased from commercial sources. Bacteria were cultured in Luria-Bertani broth (LB) at 37° C. with shaking at 200 rpm unless otherwise noted. The bacterial reporter strains used for this study were (i) the heterologous E. coli strain JLD271 (ΔsdiA) harboring the RhlR expression plasmid pJN105R2 and the rhlI-lacZ transcriptional fusion reporter pSC11-rhlI*, (ii) the heterologous E. coli strain JLD271 (ΔsdiA) harboring the LasR expression plasmid pJN105L and the […] transcriptional fusion reporter pSC11, and (iii) the P. aeruginosa strain PAO-JP2 (ΔlasrhlI) harboring the rhlI-gfp transcriptional fusion reporter prhlI-LVAgfp. Reporter strains JLD271/pJN105R2/pSC11-rhlI* and JLD271/pJN105L/pSC11 were grown in LB containing 100 μg/mL ampicillin and 10 μg/mL gentamicin. Freezer stocks of bacterial strains were maintained at −80° C. in 1:1 LB:50% glycerol.
To evaluate the modulatory activities of library compounds on RhlR and LasR using E. coli reporters, the strains JLD271/pJN105R2/pSC11-rhlI* and JLD271/pJN105L/pSC11 were used, respectively, as previously described.^38, 51 The following modifications were used in the RhlR agonism reporter assay, non-native compounds (10 μM or 1 mM) were compared to 1 mM BHL as the positive control. Briefly, a subculture was prepared by diluting an overnight culture 1:10 with fresh media containing 100 μg/mL ampicillin and 10 μg/mL gentamicin, and was incubated until it had grown to OD600=0.45. In all assays, L-arabinose was added to a final concentration of 4 mg/mL to induce RhlR expression. For RhlR agonism assays, activities of test compounds were measured relative to 1 mM BHL (the concentration required to induce a maximal level of RhlR activity). […] Activity was measured relative to 10 μM BHL. Inhibition was calculated by subtracting 100% from the relative activity value. Thus, 0% inhibition mimics represents no competitive displacement of 10 μM BHL by a test compound. In all assays, modifications were made to the standard Miller assay protocol to accommodate the use of the chlorophenol red-β-D-galactopyranoside (CPRG) β-galactosidase substrate. After cell lysis, 150 μL of the aqueous layer was transferred from each well of a solvent-resistant 96-well microtiter plate to the wells of a new clear, flat-bottom 96-well microtiter plate. CPRG (4 mg/mL in phosphate-buffered saline) was added to each well in 25 μL volumes. Plates were incubated at 30° C. until the positive control wells developed a red color (approximately 30 min). The amount of processed CPRG substrate was assessed by measuring the absorbance of each well at 570 nm. Enzymatic activity was calculated using the following equation: adjusted Miller units=1000·Abs570/(OD600·t·V),
(§2) where t is the incubation time of substrate with lysate and V is the volume of culture lysed.
The RhlR-modulatory activity of the J library compounds was assessed in a heterologous reporter strain (E. coli JLD271 harboring plasmids pJN105R2 and pSC11-rhlI*) in order to isolate the RhlR receptor from upstream QS regulation (e.g. regulation by LasR). Thus, the extent to which compounds were directly modulating RhlR could be determined. These assays were performed by incubating compound-treated, mid-log phase E. coli reporter cells in 96-well microtiter plates, followed by Miller assay evaluation of ß-galactosidase activity.
RhlR agonism and antagonism screens of each compound were performed initially at 10 μM.

RhlR [2] = biological target: T1, RhlR; assay: P. aeruginosa RhlR reporter antagonism assay vs 10 μM BHL (PAO-JP2/prhlI-LVAgfp); assay type: cell-based
Experimental: FIGS. 10A and B illustrate exemplary dose-response curves for RhlR antagonism in the E. coli JLD271/pJN105R2/pSC11-rhlI* reporter strain vs. 10 μM BHL (FIG. 10A) and in the P. aeruginosa PAO-JP2/prhlI-LVAgfp reporter strain vs. 10 μM BHL (FIG. 10B).
(§3) To evaluate the RhlR-modulatory activities of selected compounds in P. aeruginosa, the ΔlasIrhlI strain PAO-JP2 harboring plasmid prhlI-LVAgfp was used as previously reported.^38 Briefly, a subculture was prepared by diluting an overnight culture 1:100 in fresh LB and was grown to OD600=0.3. […] Subculture was treated with 100 nM OdDHL (to induce native expression of RhlR) by adding the appropriate amount of OdDHL stock solution in DMSO. The subculture was then dispensed ([…] aliquots) into each synthetic compound-containing well of the microtiter plate.
(§4) Plates were incubated at 37° C. for 6 h, and GFP production was monitored by using a Synergy 2 plate reader (λex=500 nm, λem=540 nm; BioTek, Winooski, Vt.) and quantified with Gen5 1.05 software (BioTek). The final OD600 for each well was measured to normalize GFP production to cell density. All synthetic compounds were tested in triplicate, and three separate trials were performed with unique cultures. Agonism dose-response analyses were performed by testing compounds over a range of concentrations with the RhlR reporter.

[3] = Hydrolytic stability in buffers of varying pH by HPLC; assay type: physicochemical; settings: room temperature
Experimental: To assess the relative stability of the thiolactone and homoserine lactone moieties, stability studies were performed as reported previously,^53 with the following changes. Compounds RN22 and E22 (50 μM) were dissolved in either 1 mM 2-(N-morpholino)-ethanesulfonic acid (MES) buffer at pH 6, or 1 mM tris(hydroxymethyl)-aminomethane (TRIS) buffer at pH 7, pH 8, or pH 9. Solutions were placed static at room temperature, and 150 μL aliquots were taken every two hours for eight hours, then again at 24 hours. Samples were immediately separated via HPLC, and the area under the curve (AUC) at 220 nm was calculated and compared to the area at t=0. […] Degradation of both compounds to the hydrolysis product was confirmed via mass spectrometry of the resulting byproduct peak.
P. aeruginosa media is observed to become more alkaline over time, making the hydrolytic instability of the homoserine lactone head group a concern in developing AHL-type modulators for use in the wild-type organism. […] To evaluate their stability in a more direct assay, the stability of thiolactone RN22 relative to its lactone homolog E22 was monitored over time and at varying pH values using HPLC. The amount of compound RN22 remaining over 24 h was compared to E22. […] Degradation products were confirmed to be the hydrolyzed lactone head groups via mass spectroscopy.

RhlR [4] = biological target: T1, RhlR; assay: E. coli RhlR reporter agonism assay (JLD271/pJN105R2/pSC11-rhlI*); assay type: cell-based, P. aeruginosa; settings: compound at 10 μM; RhlR activity relative to 1 mM BHL; E. coli reporter
Experimental: as §1
To evaluate the modulatory activities of library compounds on RhlR and LasR using E. coli reporters, the strains JLD271/pJN105R2/pSC11-rhlI* and JLD271/pJN105L/pSC11 were used, respectively, as previously described.^38, 51 The following modifications were used in the RhlR agonism reporter assay, non-native compounds (10 μM or 1 mM) were compared to 1 mM BHL as the positive control. Briefly, a subculture was prepared by diluting an overnight culture 1:10 with fresh media containing 100 μg/mL ampicillin and 10 μg/mL gentamicin, and was incubated until it had grown to OD600=0.45. In all assays, L-arabinose was added to a final concentration of 4 mg/mL to induce RhlR expression. For RhlR agonism assays, activities of test compounds were measured relative to 1 mM BHL (the concentration required to induce a maximal level of RhlR activity). For RhlR antagonism assays, test compounds were competed against a concentration of BHL approximately equal to its EC50 value (10 μM). Activity was measured relative to 10 μM BHL. Inhibition was calculated by subtracting 100% from the relative activity value. Thus, 0% inhibition mimics represents no competitive displacement of 10 μM BHL by a test compound. In all assays, modifications were made to the standard Miller assay protocol to accommodate the use of the chlorophenol red-β-D-galactopyranoside (CPRG) β-galactosidase substrate. After cell lysis, 150 μL of the aqueous layer was transferred from each well of a solvent-resistant 96-well microtiter plate to the wells of a new clear, flat-bottom 96-well microtiter plate. CPRG (4 mg/mL in phosphate-buffered saline) was added to each well in 25 μL volumes. Plates were incubated at 30° C. until the positive control wells developed a red color (approximately 30 min). The amount of processed CPRG substrate was assessed by measuring the absorbance of each well at 570 nm. Enzymatic activity was calculated using the following equation: adjusted Miller units=1000·Abs570/(OD600·t·V),
as §2
Because LuxR-type receptors are often unstable in solution, preventing the use of in vitro assays to directly assess small molecule agonism and antagonism, reporter gene assays represent a standard method for screening small-molecule libraries for LuxR-type receptor modulation. Previously reported strains for this purpose were used in the current study.^38 Synthetic N-butanoyl L-homoserine lactone (BHL), the native ligand of RhlR, was used as the positive control for receptor activation. Commonly, agonists are measured relative to maximum possible receptor activation within a particular assay medium;^40 because the dose-response curve of BHL is distinctly shallow in these RhlR reporters, a high concentration of BHL is required to maximally activate RhlR. In this study, activation of compounds was measured relative to that elicited by 1 mM BHL (the concentration of BHL used causes no aberrant growth effects in the reporter strain). […]

RhlR [5] = biological target: T1, RhlR; assay: P. aeruginosa RhlR reporter agonism assay (PAO-JP2/prhlI-LVAgfp); assay type: cell-based; settings: P. aeruginosa reporter compared with E. coli reporter
Experimental: as §1, §3, §4
Library compounds J18 and J24, as well as controls BHL and S4, were evaluated for potency in the native genetic background of RhlR by using the P. aeruginosa strain PAO-JP2 (ΔlasIrhlI) harboring the RhlR reporter plasmid prhlI-LVAgfp (Table 3). Because the production of RhlR is dependent on LasR (in LB medium), all assays were performed in the presence of 100 nM OdDHL, enabling immediate transcription of RhlR via LasR activation. […] All compounds also retained similar potencies when screened in the P. aeruginosa background.

T1 sequence (P54292 whole entry): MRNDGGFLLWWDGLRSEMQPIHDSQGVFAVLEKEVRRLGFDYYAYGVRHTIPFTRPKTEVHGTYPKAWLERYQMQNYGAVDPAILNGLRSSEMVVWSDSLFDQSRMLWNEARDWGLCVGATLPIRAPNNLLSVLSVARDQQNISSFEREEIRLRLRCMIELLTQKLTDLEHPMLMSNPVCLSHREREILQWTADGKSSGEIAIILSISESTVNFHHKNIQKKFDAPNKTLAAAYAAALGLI

O=C(COc1ccc(I)cc1)NC1CCOC1=O (centres unmarked) [Compound E22, reference compound]
IC50 (RhlR [1]): 17.3 µM | Maximum Inhibition (%) (RhlR [1]): 74% | IC50 (RhlR [2]): 23.9 µM | Maximum Inhibition (%) (RhlR [2]; P. aeruginosa reporter, relative to activation of 10 μM BHL alone): 96% | fold change of IC50 from E. coli to P. aeruginosa reporter (RhlR [2]; vs 10 μM BHL): ~1.4 fold | increase of maximum inhibition from E. coli to P. aeruginosa reporter (RhlR [2]; vs 10 μM BHL): more than 20% | half-life at 50 μM ([3]; pH 6, 1 mM MES buffer): 182 h | half-life at 50 μM ([3]; pH 7, 1 mM TRIS buffer): 48.1 h | half-life at 50 μM ([3]; pH 8, 1 mM TRIS buffer): 10.1 h | half-life at 50 μM ([3]; pH 9, 1 mM TRIS buffer): 2.3 h

O=C(NC1CCCC1)C1CCC1 [RN13]
activation at 10 µM (RhlR [4]): 0% | IC50 (RhlR [1]): 26.7 µM | RhlR antagonist activity in words (RhlR [1]; E. coli reporter vs 10 μM BHL): potent antagonist activity; also recorded: two-fold increased potency as measured by IC50 over parent compound RN4; also recorded: undesirable non-monotonic behavior | Maximum Inhibition (%) (RhlR [1]): 32% | inhibition at 10 µM (RhlR [1]; read-out: % inhibition (10 μM), compound at 10 μM in the presence of 10 μM BHL, negative = agonism stronger than 10 μM BHL alone): 24% | inhibition at 1000 µM (RhlR [1]; read-out: % inhibition (1 mM), compound at 1 mM in the presence of 10 μM BHL, negative = agonism stronger than 10 μM BHL alone): 25% | RhlR agonist potency in words (RhlR [5]): maintained activity between the two different reporters
